Assay results taken from the supplement of paper PMC5908809.

Experiments:
[1] = test system: normal primary NK cells, pool 3 (3 donors) (IL-2 2.5 ng/mL); test: drug sensitivity score (DSS) (DSS units); higher = more sensitive; extreme values may be limits of the assay; conditions: 72 h
SNK-6 (IL-2 2.5 ng/mL) [2] = test: as above; conditions: 72 h
[3] = test system: normal primary NK cells, pool 2 (3 donors) (IL-2 2.5 ng/mL); test: as above; conditions: 72 h
NK-92 (IL-2 2.5 ng/mL) [4] = test: as above; conditions: 72 h
DERL-7 (IL-2 2.5 ng/mL) [5] = test: as above; conditions: 72 h
IMC-1 (IL-2 20 ng/mL) [6] = test: as above; conditions: 72 h
NK-YS (IL-2 2.5 ng/mL) [7] = test: as above; conditions: 72 h
NKL (IL-2 2.5 ng/mL) [8] = test: as above; conditions: 72 h
[9] = test system: normal primary NK cells, pool 1 (3 donors), resting (IL-2 0 ng/mL); test: as above; conditions: 72 h
YT (IL-2 2.5 ng/mL) [10] = test: as above; conditions: 72 h
[11] = test system: normal primary NK cells, pool 1 (3 donors) (IL-2 2.5 ng/mL); test: as above; conditions: 72 h
KAI3 (IL-2 2.5 ng/mL) [12] = test: as above; conditions: 72 h
KHYG-1 (IL-2 2.5 ng/mL) [13] = test: as above; conditions: 72 h
[14] = test system: normal NK cells expanded with K562-aAPC; test: percent inhibition of viability; higher = more inhibition; conditions: 72 h, IL-2 2.5 ng/mL
Protocol: (§1)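 Drug sensitivity and resistance testing on K562-aAPC-expanded normal NK cells: 5 concentrations (10-fold steps over a 10,000-fold range), 72 h at 37 °C, viability by CellTiter-Glo normalised to DMSO and benzethonium chloride controls; DSS from the fitted curve.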

[15] = test system: normal NK cells expanded with K562-aAPC; test: drug sensitivity score (DSS) (DSS units); higher = more sensitive; extreme values may be limits of the assay; conditions: 72 h; IL-2 2.5 ng/mL
Protocol: as §1

[16] = test system: normal primary NK cells, pool 3 (3 donors) (IL-2 2.5 ng/mL); test: percent inhibition of viability; higher = more inhibition; conditions: 72 h
SNK-6 (IL-2 2.5 ng/mL) [17] = test: as above; conditions: 72 h
[18] = test system: normal primary NK cells, pool 2 (3 donors) (IL-2 2.5 ng/mL); test: as above; conditions: 72 h
NK-92 (IL-2 2.5 ng/mL) [19] = test: as above; conditions: 72 h
DERL-7 (IL-2 2.5 ng/mL) [20] = test: as above; conditions: 72 h
IMC-1 (IL-2 20 ng/mL) [21] = test: as above; conditions: 72 h
NK-YS (IL-2 2.5 ng/mL) [22] = test: as above; conditions: 72 h
NKL (IL-2 2.5 ng/mL) [23] = test: as above; conditions: 72 h
[24] = test system: normal primary NK cells, pool 1 (3 donors), resting (IL-2 0 ng/mL); test: as above; conditions: 72 h
YT (IL-2 2.5 ng/mL) [25] = test: as above; conditions: 72 h
[26] = test system: normal primary NK cells, pool 1 (3 donors) (IL-2 2.5 ng/mL); test: as above; conditions: 72 h
KAI3 (IL-2 2.5 ng/mL) [27] = test: as above; conditions: 72 h
KHYG-1 (IL-2 2.5 ng/mL) [28] = test: as above; conditions: 72 h

O=C(Nc1ccc2[nH]nc(-c3ccncc3)c2c1)[C@@H]1CCN(CC(=O)N2CCN(c3ccc(-c4ncccn4)cc3)CC2)C1 (max concentration tested 10000 nM)
Conditions	drug sensitivity score
DERL-7 (IL-2 2.5 ng/mL) [5]	10.3
IMC-1 (IL-2 20 ng/mL) [6]	0
KAI3 (IL-2 2.5 ng/mL) [12]	5.52
KHYG-1 (IL-2 2.5 ng/mL) [13]	9.89
NK-92 (IL-2 2.5 ng/mL) [4]	0.01
NK-YS (IL-2 2.5 ng/mL) [7]	3.58
NKL (IL-2 2.5 ng/mL) [8]	10.9
SNK-6 (IL-2 2.5 ng/mL) [2]	0.08
YT (IL-2 2.5 ng/mL) [10]	1.87
[1]	0.32
[3]	0.76
[9]	5.24
[11]	4.28
[15]	1.01

percent inhibition of viability [%]
Conditions	1 nM	10 nM	100 nM	1000 nM	10000 nM
DERL-7 (IL-2 2.5 ng/mL) [20]	-1.39	5.53	18	42.9	66.6
IMC-1 (IL-2 20 ng/mL) [21]	-5.11	-10.7	-8.77	-10.1	-4.64
KAI3 (IL-2 2.5 ng/mL) [27]	-4.48	5.51	14.6	21	46.9
KHYG-1 (IL-2 2.5 ng/mL) [28]	-2.48	-2.2	5.59	45.6	78.9
NK-92 (IL-2 2.5 ng/mL) [19]	-6.06	-9.07	-16.6	-32.5	12.5
NK-YS (IL-2 2.5 ng/mL) [22]	-4.51	-0.3	-0.1	9.9	40.6
NKL (IL-2 2.5 ng/mL) [23]	-19.4	-14.6	3.59	55.7	71.8
SNK-6 (IL-2 2.5 ng/mL) [17]	-4.99	4.31	5.1	-34.4	15.8
YT (IL-2 2.5 ng/mL) [25]	-0.05	-0.51	-3.3	9.81	22.2
[14]	2.7	-4.22	-5.95	2.93	20.3
[16]	-13.2	-18.2	-22.8	-10.8	20
[18]	-6.14	-5.45	0.32	5.74	15.6
[24]	4.46	-7.38	-1.31	12.8	58.7
[26]	-5.21	-6.91	-5.12	11.2	47.8

COc1cccc2c1C(=O)c1c(O)c3c(c(O)c1C2=O)C[C@@](O)(C(C)=O)C[C@@H]3O[C@H]1C[C@H](N)[C@H](O)[C@H](C)O1 [Daunorubicin] (max concentration tested 1000 nM)
Conditions	drug sensitivity score
DERL-7 (IL-2 2.5 ng/mL) [5]	19.7
IMC-1 (IL-2 20 ng/mL) [6]	20.7
KAI3 (IL-2 2.5 ng/mL) [12]	14.2
KHYG-1 (IL-2 2.5 ng/mL) [13]	16.9
NK-92 (IL-2 2.5 ng/mL) [4]	16
NK-YS (IL-2 2.5 ng/mL) [7]	17.3
NKL (IL-2 2.5 ng/mL) [8]	29.4
SNK-6 (IL-2 2.5 ng/mL) [2]	17.1
YT (IL-2 2.5 ng/mL) [10]	16.6
[1]	16.1
[3]	19.2
[9]	20.5
[11]	19.6
[15]	14.4

percent inhibition of viability [%]
Conditions	0.1 nM	1 nM	10 nM	100 nM	1000 nM
DERL-7 (IL-2 2.5 ng/mL) [20]	-3.3	-4.68	21.2	92.8	101
IMC-1 (IL-2 20 ng/mL) [21]	-9.54	-10.2	16.5	98.7	101
KAI3 (IL-2 2.5 ng/mL) [27]	-5.78	-13.2	19.7	61.9	106
KHYG-1 (IL-2 2.5 ng/mL) [28]	1.81	-4.06	-1.19	93.7	109
NK-92 (IL-2 2.5 ng/mL) [19]	-16.2	-14.1	-9.07	89.9	109
NK-YS (IL-2 2.5 ng/mL) [22]	-2.31	-8.67	23.9	77.1	106
NKL (IL-2 2.5 ng/mL) [23]	-2.22	6.13	88.5	104	109
SNK-6 (IL-2 2.5 ng/mL) [17]	-12.6	-10.6	-5.61	97.8	94.5
YT (IL-2 2.5 ng/mL) [25]	-3.13	-9.89	-7.78	93.8	110
[14]	-6.49	-5.27	0.18	77.3	101
[16]	-11.8	-3.78	7.93	81.6	99.9
[18]	-11.1	-1.9	13	92.7	94.4
[24]	-16.4	-27.6	23.2	91.1	94
[26]	-16.8	-3.87	17.1	94.1	98.6
